Reference: ChEMBL document CHEMBL1146161, “Synthesis and anti-HIV properties of new hydroxyquinoline-polyamine conjugates on cells infected by HIV-1 LAV and HIV-1 BaL viral strains” (Bioorg Med Chem Lett, 2006)
Calls of active or inactive are those of the source. No cut-off for these calls is given here.

Key:
[1] = system: Human immunodeficiency virus 1; test: Antiviral activity against HIV1 LAV in PBMC; format: functional, organism-based; conditions: for EC50: Human immunodeficiency virus 1, LAV
[2] = Cytotoxicity against PBMC; format: cell-based; conditions: human
[3] = system: Human immunodeficiency virus 1; test: Antiviral activity against HIV1 BaL in PBMC; format: functional, organism-based; conditions: for EC50: Human immunodeficiency virus 1, BaL

Oc1ccc(CNCCCNCc2ccc(O)c3ncccc23)c2cccnc12
Activity [1]: inactive | CC50 [2]: > 10 µM | Activity [3]: inactive

Oc1ccc(CN2CCCNCCCNCCNCCC2)c2cccnc12
EC50 [1]: 1.5 µM | CC50 [2]: > 10 µM | EC50 [3]: 1.25 µM

Oc1ccc(CN2CCCN(Cc3ccc(O)c4ncccc34)CCNCCCNCC2)c2cccnc12
EC50 [1]: 4.1 µM | CC50 [2]: 8 µM | Activity [3]: Toxic

c1cc(CN2CCCNCCNCCCNCC2)cc(CN2CCCNCCNCCCNCC2)c1
EC50 [1]: 0.05 µM | CC50 [2]: > 10 µM | Activity [3]: inactive

Oc1ccc(CN2CCN(Cc3ccc(O)c4ncccc34)CC2)c2cccnc12
Activity [1]: inactive | CC50 [2]: > 10 µM | Activity [3]: inactive

Oc1ccc(CN2CCCNCCN(Cc3ccc(CN4CCCNCCNCCCNCC4)cc3)CCCNCC2)c2cccnc12
EC50 [1]: 0.7 µM | CC50 [2]: > 10 µM | EC50 [3]: 3.5 µM

c1cc(CN2CCCNCCNCCCNCC2)ccc1CN1CCCNCCNCCCNCC1 [PLERIXAFOR]
EC50 [1]: 0.47 µM | CC50 [2]: > 10 µM | Activity [3]: inactive

Oc1ccc(CN2CCCNCCNCCCNCC2)c2cccnc12
EC50 [1]: 4.1 µM | CC50 [2]: > 10 µM | EC50 [3]: 4.35 µM

Oc1ccc(CNCc2ccc(CNCc3ccc(O)c4ncccc34)cc2)c2cccnc12
Activity [1]: inactive | CC50 [2]: > 10 µM | Activity [3]: inactive

Oc1ccc(CCl)c2cccnc12
EC50 [1]: 5.1 µM | CC50 [2]: > 10 µM | Activity [3]: inactive

Oc1c(I)cc(Cl)c2cccnc12 [CLIOQUINOL]
Activity [1]: inactive | CC50 [2]: 2 µM | Activity [3]: inactive
